Laboratory results: patent US20250109388A1, “METHOD FOR ISOLATING AND CONCENTRATING EXTRACELLULAR VESICLE GROUP DERIVED FROM CANCER CELL, ANALYSIS METHOD, DRUG SELECTION METHOD, KIT, AND ANTI-CANCER AGENT” (THE UNIVERSITY OF TOKYO, priority 2022, published 2025)

Key:
human adipocytes [1] = test: EV internalization into human adipocytes by β-actin-HiBiT luciferase activity; assay type: cell-based; conditions: Panc-1 EVs, 1 hour; 20 IM CPZ, 10 μM nocodazole, 20 μM CytD, 2.5 μg/mL nystatin
Procedure: The luciferase level is a luciferase level 5 of adipocytes treated for 1 hour with EV ([…]) in the presence or absence of a treatment with an endocytosis inhibitor (20 IM chlorpromazine (CPZ), 10 μM nocodazole, 20 μM cytochalasin D (CytD), or 2.5 μg/mL nystatin, or incubation at 4° C.), which is a value indicated in terms of comparison with a negative control (PBS). Data are in terms of mean±SD (n=3). P=0.74 (CPZ), *P=0.029 (nocodazole), *P=0.032 (CytD), **P=0.0078 (nystatin), and **P=0.0074 (4° C.); comparison with cells treated with EV alone (control).
Wild type: EVs derived from Panc-1 cells (not expressing HiBiT) as a negative control, EV-H and EV-L: EVs derived from Panc-1-ACTB-HiBiT cells cultured with high glucose and low glucose, respectively. […] P=0.61 (EV-H versus EV-L). […] P=0.72. […] The relative luciferase level of adipocytes treated for 1 hour with 10^9 particles of EVs (EV-H and EV-L) derived from Panc-1-ACTB-HiBiT cells was compared with the negative control (PBS). Data are in terms of mean±SD (n=3). **P=0.0011.
Wild type; Panc-1 cells (not expressing HiBiT) as a negative control, EV and EV-NP40; EVs derived from Panc-1-ACTB-HiBiT cells. 10^9 particles per sample were used. Data are in terms of mean±SD (n=3). **P=0.0017 (EV), **P<[…] (EV-NP40), and **P=0.0026 (EV versus EV-NP40). […] The luciferase level of the lysate of adipocytes treated for 1 hour with EVs (10^9 particles) derived from Panc-1-ACTB-HiBiT cells or EV-NP40 was compared with the negative control (PBS), and the results are shown. Data are in terms of mean±SD (n=3). *P=0.045. Statistical analyses were carried out using Welch's t-test.
β-actin is contained as a pan-EV marker in most EVs derived from human serum and human cell lines. To monitor the EV endocytosis level, a reporter cell (Panc-1-ACTB-HiBiT cell) was established by knocking in the HiBiT peptide sequence at the 3′ terminal of the ACTB locus of Panc-1 cell (see FIGS. 11 and 12). A high luciferase activity was detected in a lysate of cells and in EVs derived from these cells, and thus it was confirmed that the β-actin-HiBiT protein is present in the EVs (see FIGS. 13(A) and 13(B).
The luciferase level of the adipocyte lysate was upregualted 1 hour after the addition of EV and was similar to a level in a case where chlorpromazine, a clathrin-mediated endocytosis inhibitor, was used. […] (see FIG. 14).

human adipocytes [2] = test: Glycerin release (lipolysis) from human adipocytes treated with EVs; assay type: cell-based; conditions: for Released glycerin level from adipocytes treated with Panc-1 EVs in presence of inhibitor: 10 μM H89, 0.5 μM orlistat, Cay10499
Procedure: (§1) Data are in terms of mean±SD (n=3). **P=0.0025. […] Data are in terms of mean±SD (n=3). […] P=0.65.
FIG. 15 This figure is a graph of glycerin release from adipocytes treated for 24 hours with EVs (1.5 μg) derived from Panc-1 cells, in the presence or absence of an inhibitor of endocytosis. The dosage of the inhibitor is as described in FIG. 14. Data are in terms of mean±SD (n=3). P=0.40 (CPZ), *P=0.027 (Nocodazole), *P=0.012 (CytD). **P=0.0065 (Nystatin), and **P=0.0074 (4° C.); comparison with cells treated with EV alone (control). Statistical analyses were carried out using Welch's t-test. […]
EVs having a mode diameter of 100 to 150 nm were isolated from various sources, except for EVs of about 240 nm derived from Capan-2 cells. […] The expression of exosome markers such as TSG101 and CD63 in EVs was confirmed, whereby it was confirmed that EV isolation was appropriate (see FIG. 1). To investigate the effect of EV, mature human adipocytes were induced from human adipose-derived mesenchymal stem cells (hAD-MSCs) and subjected to an EV treatment (see FIGS. 2 to 4). […] Miapapaca-2 cells, and BxPC-3 cells, but it was not observed in adipocytes treated with EVs derived from Capan-2 cells (see FIG. 5).

adipocytes = test: Isoproterenol-induced glycerin release from adipocytes; assay type: cell-based, human
Description: as §1
Further, the dependence of the lipolysis induced by EV, under newly synthesized cAMP, was investigated. In general, a β-stimulant such as isoproterenol activates G proteins, and it subsequently activates adenylyl cyclase, which leads to the synthesis of cAMP.

[3] = 30 μM SQ22536, 24-hour treatment

Compound | Luciferase level of adipocyte lysate (EV internalization) with endocytosis inhibitor, vs EV alone (human adipocytes [1]) | Released glycerin level from adipocytes treated with Panc-1 EVs in presence of inhibitor (human adipocytes [2]) | also measured
C[C@@H]1[C@H](O)[C@@H](C)/C=C/C=C/CC/C=C/C=C/C=C/C=C/C(O[C@H]2O[C@H](C)[C@@H](O)[C@H](N)[C@@H]2O)CC2O[C@](O)(CC(O)C(O)CCC(O)CC(O)CC(O)CC(=O)O[C@H]1C)CC(O)C2C(=O)O (stereo partly shown) [nystatin] | significantly lower |  | 
C=C1[C@@H](C)[C@H]2[C@H](Cc3ccccc3)NC(=O)[C@]23[C@H](OC(C)=O)/C=C/[C@@](C)(O)C(=O)[C@@H](C)C/C=C/[C@H]3[C@@H]1O [cytochalasin D] | significantly lower |  | 
CN(C)CCCN1c2ccccc2Sc2ccc(Cl)cc21 [chlorpromazine] | similar |  | 
CCCCCCCCCCC[C@@H](C[C@@H]1OC(=O)[C@H]1CCCCCC)OC(=O)[C@H](CC(C)C)NC=O [Orlistat] |  | significantly reduced | 
COc1nn(-c2ccc(NC(=O)OCc3ccccc3)c(C)c2)c(=O)o1 [Cay10499] |  | significantly reduced | 
CC(C)NCC(O)c1ccc(O)c(O)c1 (stereo not shown) [isoproterenol] |  |  | Lipolysis in adipocytes (glycerin release) (adipocytes; 10 μM isoproterenol): induces lipolysis
Nc1ncnc2c1ncn2C1CCCO1 (stereo not shown) [SQ22536] |  |  | Inhibition of lipolysis induced by EVs derived from Panc-1 (human adipocytes [2]; [3]): did not inhibit; Inhibition of isoproterenol-induced lipolysis (adipocytes; [3]): significantly inhibited
COC(=O)Nc1nc2ccc(C(=O)c3cccs3)cc2[nH]1 [nocodazole] | significantly lower |  | 
O=S(=O)(NCCNC/C=C/c1ccc(Br)cc1)c1cccc2cnccc12 [H89] |  | significantly reduced | 
